# Reference: patent US20090304692A1, “TRIAZINE COMPOUNDS AS PI3 KINASE AND MTOR INHIBITORS” (Wyeth, priority 2008, published 2009)
# Where two headings read alike, the source gives them in different places.
# Assays:
# [1] = test system: human breast MDA-MB-361 tumor cell line; assay: In vitro cell culture growth assay (MTS), MDA-MB-361; format: cell-based; settings: read-out: IC50 MDA-MB-361
# [2] = test system: human prostate PC3-mm2 tumor cell line; assay: In vitro cell culture growth assay (MTS), PC3-mm2; format: cell-based; settings: read-out: IC50 PC3-mm2
# PI3K-γ = PI3K-γ (Homo sapiens, UniProt P48736); assay: PI3K-gamma fluorescence polarization assay; settings: read-out: IC50 PI3Kγ
# PI3K-γ, sequence (P48736 whole entry, species assumed): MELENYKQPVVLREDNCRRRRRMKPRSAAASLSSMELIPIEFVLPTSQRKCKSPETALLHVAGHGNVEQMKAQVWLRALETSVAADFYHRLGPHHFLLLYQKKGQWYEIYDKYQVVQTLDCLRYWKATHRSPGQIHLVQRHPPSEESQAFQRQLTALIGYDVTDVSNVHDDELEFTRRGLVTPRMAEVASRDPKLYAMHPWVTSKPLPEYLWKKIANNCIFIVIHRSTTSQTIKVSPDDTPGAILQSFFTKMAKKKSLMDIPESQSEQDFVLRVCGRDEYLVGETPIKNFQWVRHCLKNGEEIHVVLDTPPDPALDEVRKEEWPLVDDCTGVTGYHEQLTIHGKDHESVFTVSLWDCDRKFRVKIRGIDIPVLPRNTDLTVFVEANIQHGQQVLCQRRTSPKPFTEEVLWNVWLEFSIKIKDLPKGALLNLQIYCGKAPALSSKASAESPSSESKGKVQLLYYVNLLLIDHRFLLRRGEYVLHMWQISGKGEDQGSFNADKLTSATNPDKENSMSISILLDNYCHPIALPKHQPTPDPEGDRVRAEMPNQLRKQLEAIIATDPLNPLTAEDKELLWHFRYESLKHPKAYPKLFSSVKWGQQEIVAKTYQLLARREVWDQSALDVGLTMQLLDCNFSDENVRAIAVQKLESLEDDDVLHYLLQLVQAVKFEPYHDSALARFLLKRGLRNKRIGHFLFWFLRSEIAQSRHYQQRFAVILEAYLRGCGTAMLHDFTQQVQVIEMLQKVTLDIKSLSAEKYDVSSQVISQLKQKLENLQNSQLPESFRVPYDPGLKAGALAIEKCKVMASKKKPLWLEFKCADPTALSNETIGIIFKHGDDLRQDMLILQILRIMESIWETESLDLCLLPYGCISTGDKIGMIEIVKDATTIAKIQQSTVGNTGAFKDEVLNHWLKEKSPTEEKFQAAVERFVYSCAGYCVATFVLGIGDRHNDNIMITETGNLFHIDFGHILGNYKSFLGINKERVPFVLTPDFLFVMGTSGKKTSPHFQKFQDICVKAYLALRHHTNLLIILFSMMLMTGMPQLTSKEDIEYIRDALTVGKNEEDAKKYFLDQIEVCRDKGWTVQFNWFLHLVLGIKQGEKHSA
# PI3K-α = PI3K-α (Homo sapiens, UniProt P42336); assay: PI3K-alpha fluorescence polarization assay; settings: read-out: IC50 PI3Kα
# PI3K-α, sequence (P42336 whole entry, species assumed): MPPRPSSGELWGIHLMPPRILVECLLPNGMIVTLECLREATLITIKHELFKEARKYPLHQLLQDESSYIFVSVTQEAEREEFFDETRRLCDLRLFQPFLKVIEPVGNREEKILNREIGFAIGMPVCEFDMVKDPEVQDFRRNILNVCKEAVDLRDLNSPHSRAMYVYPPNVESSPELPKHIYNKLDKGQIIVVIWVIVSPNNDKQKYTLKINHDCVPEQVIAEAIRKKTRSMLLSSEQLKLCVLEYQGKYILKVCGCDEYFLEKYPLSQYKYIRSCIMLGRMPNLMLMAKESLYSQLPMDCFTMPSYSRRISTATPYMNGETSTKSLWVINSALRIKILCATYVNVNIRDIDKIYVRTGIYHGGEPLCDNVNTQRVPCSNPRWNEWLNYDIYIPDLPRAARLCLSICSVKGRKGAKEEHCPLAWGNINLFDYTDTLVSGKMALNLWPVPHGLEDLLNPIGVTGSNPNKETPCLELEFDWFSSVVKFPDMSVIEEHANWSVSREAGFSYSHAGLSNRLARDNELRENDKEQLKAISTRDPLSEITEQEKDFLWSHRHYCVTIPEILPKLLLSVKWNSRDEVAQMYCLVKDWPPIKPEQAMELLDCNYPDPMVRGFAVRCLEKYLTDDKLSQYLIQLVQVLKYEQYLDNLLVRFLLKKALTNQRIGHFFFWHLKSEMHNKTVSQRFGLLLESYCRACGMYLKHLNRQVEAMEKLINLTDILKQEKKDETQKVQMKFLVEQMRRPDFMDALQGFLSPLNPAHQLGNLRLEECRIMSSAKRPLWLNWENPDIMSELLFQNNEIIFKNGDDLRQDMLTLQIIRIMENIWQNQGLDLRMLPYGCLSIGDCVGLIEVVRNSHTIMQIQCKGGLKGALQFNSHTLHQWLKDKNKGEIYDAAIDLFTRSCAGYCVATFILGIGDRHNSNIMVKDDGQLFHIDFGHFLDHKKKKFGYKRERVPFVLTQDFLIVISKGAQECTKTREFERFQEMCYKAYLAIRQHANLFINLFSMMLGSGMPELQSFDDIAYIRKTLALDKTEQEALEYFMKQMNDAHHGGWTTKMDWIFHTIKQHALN
# PI3K-α, sequence (P27986 whole entry partner, species assumed): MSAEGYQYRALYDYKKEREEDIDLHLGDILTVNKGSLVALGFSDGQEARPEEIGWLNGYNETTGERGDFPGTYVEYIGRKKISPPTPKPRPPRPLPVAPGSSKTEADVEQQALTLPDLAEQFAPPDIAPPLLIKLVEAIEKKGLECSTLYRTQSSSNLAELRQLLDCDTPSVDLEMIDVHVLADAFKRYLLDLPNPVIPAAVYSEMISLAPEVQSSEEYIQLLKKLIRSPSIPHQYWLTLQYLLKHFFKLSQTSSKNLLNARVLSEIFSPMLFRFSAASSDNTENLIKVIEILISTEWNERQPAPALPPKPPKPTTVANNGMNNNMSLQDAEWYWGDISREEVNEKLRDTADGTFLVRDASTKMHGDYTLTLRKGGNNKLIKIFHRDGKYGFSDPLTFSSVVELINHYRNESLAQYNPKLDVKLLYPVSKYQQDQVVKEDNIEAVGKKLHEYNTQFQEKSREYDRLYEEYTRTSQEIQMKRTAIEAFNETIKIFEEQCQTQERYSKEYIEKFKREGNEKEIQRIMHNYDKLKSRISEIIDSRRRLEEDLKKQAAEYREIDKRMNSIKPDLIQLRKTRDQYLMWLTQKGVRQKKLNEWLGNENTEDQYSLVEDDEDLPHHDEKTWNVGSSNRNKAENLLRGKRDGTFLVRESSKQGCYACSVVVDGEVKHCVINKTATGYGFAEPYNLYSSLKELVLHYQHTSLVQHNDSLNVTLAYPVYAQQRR
# Human mTOR (FLAG-TOR) = Human mTOR (FLAG-TOR) (Homo sapiens, UniProt P42345); assay: mTOR kinase assay (DELFIA format, purified enzyme); format: biochemical; settings: read-out: IC50 mTOR
# Human mTOR (FLAG-TOR), sequence (P42345 1360-2549 limits assumed): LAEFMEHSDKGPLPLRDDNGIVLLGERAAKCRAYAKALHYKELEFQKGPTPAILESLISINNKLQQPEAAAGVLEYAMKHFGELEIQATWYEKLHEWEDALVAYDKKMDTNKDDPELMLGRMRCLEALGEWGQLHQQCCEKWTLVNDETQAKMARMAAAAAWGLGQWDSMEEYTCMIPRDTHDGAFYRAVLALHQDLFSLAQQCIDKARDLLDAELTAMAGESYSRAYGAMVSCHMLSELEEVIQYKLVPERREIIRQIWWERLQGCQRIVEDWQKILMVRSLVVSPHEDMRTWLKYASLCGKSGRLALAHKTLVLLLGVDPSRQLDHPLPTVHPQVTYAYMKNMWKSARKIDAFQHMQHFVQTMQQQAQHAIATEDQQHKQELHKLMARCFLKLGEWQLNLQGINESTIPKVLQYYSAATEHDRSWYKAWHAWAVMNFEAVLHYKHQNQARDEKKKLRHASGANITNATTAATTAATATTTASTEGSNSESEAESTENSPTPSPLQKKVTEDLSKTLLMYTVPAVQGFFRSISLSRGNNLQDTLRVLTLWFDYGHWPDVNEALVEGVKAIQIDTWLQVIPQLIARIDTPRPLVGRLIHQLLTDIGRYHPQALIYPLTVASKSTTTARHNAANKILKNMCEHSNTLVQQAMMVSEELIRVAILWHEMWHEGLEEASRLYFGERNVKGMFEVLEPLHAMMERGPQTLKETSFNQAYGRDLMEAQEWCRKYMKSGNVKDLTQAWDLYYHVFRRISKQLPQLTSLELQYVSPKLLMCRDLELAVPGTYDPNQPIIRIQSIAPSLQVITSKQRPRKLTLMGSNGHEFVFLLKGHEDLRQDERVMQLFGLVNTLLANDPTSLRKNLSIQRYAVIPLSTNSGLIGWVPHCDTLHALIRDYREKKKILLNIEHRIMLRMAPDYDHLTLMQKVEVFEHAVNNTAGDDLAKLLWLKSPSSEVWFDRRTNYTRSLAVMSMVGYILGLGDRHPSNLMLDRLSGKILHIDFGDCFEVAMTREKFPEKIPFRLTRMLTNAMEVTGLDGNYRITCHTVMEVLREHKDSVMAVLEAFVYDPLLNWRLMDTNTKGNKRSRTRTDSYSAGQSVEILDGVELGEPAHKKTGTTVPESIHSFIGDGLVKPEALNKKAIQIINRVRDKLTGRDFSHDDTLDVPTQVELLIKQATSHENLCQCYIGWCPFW
# [3] = MTS cell growth assay, three days after drug treatment
# [4] = MTS cell growth assay, three days after drug treatment, MDA-MB-361 cells
# [5] = MTS cell growth assay, three days after drug treatment, PC3-mm2 cells
# [6] = Homo sapiens, MDA-MB-361, 72 h, MTS cell growth assay, three days after drug treatment
# [7] = Homo sapiens, PC3MM2, 72 h, MTS cell growth assay, three days after drug treatment
# [8] = Homo sapiens, 72 h, MTS cell growth assay, three days after drug treatment, MDA-MB-361 cells
# [9] = Homo sapiens, PC3MM2, 72 h, MTS cell growth assay, three days after drug treatment, PC3-mm2 cells
# [10] = Homo sapiens, PC3MM2, 72 h, PC3-mm2 cells, MTS, three days after drug treatment
compound,measurement,setting,value
"1-(4-(4,6-dimorpholino-1,3,5-triazin-2-yl)phenyl)-3-(4-(2-(pyridin-2-yl)acetyl)phenyl)urea [Example 78]",IC50,[1]; [3],68 nM
same,IC50,[2]; [3],31 nM
same,IC50,PI3K-γ,23 nM
"1-(4-{[4-(1-methylethyl)piperazin-1-yl]carbonyl}phenyl)-3-[4-(4-morpholin-4-yl-6-piperidin-1-yl-1,3,5-triazin-2-yl)phenyl]urea [Example 595]",IC50,[1]; [4],43 nM
same,IC50,[2]; [5],193 nM
same,IC50,PI3K-γ,58.5 nM
"1-(4-{[4-(dimethylamino)piperidin-1-yl]carbonyl}phenyl)-3-[4-(4-morpholin-4-yl-6-phenyl-1,3,5-triazin-2-yl)phenyl]urea [Example 544]",IC50,PI3K-α,3.5 nM
same,IC50,Human mTOR (FLAG-TOR),17 nM
same,IC50,[1]; [4],58 nM
same,IC50,PI3K-γ,20.5 nM
"4-yl-6-(3-oxa-8-azabicyclo[3.2.1]oct-8-yl)-1,3,5-triazin-2-yl]phenyl}urea [Example 518]",IC50,PI3K-α,0.9 nM
same,IC50,[1]; [4],4 nM
same,IC50,[2]; [5],24 nM
same,IC50,PI3K-γ,6.5 nM
"4-{[(4-{4,6-bis[(3S)-3-methylmorpholin-4-yl]-1,3,5-triazin-2-yl}phenyl)carbamoyl]amino}-N-(2-pyrrolidin-1-ylethyl)benzamide [Example 635]",IC50,PI3K-α,22 nM
same,IC50,[1]; [4],26 nM
same,IC50,[2]; [5],106 nM
same,IC50,PI3K-γ,378 nM
"4-{[(4-{4-morpholin-4-yl-6-[(3S)-tetrahydrofuran-3-yloxy]-1,3,5-triazin-2-yl}phenyl)carbamoyl]amino}-N-(2-pyrrolidin-1-ylethyl)benzamide [Example 521]",IC50,PI3K-α,1.4 nM
same,IC50,[1]; [4],8 nM
same,IC50,[2]; [5],27 nM
"C[C@H]1COCCN1c1nc(-c2ccc(NC(=O)Nc3ccc(CO)cc3)cc2)nc(N2CCOCC2)n1 [Example 91, 1-[4-(2-hydroxymethyl)phenyl]-3-(4-{4-[(3S)-3-methylmorpholin-4-yl]-6-morpholin-4-yl-1,3,5-triazin-2-yl}phenyl)urea]",IC50,PI3K-α,6 nM
same,IC50,[1]; [6],25 nM
same,IC50,[2]; [7],1570 nM
same,IC50,PI3K-γ,73 nM
"CC(O)c1nc(-c2ccc(NC(=O)Nc3ccncc3)cc2)nc(N2CCOCC2)n1 (stereo not shown) [Example 223, 1-{4-[4-(1-hydroxyethyl)-6-morpholin-4-yl-1,3,5-triazin-2-yl]phenyl}-3-pyridin-4-ylurea]",IC50,PI3K-α,2 nM
same,IC50,[1]; [6],187 nM
same,IC50,[2]; [7],229 nM
same,IC50,PI3K-γ,200 nM
"CNCCN(C)C(=O)c1ccc(NC(=O)Nc2ccc(-c3nc(OC)nc(N4CCOCC4)n3)cc2)cc1 [Example 245, 4-({[4-(4-methoxy-6-morpholin-4-yl-1,3,5-triazin-2-yl)phenyl]carbamoyl}amino)-N-methyl-N-[2-(methylamino)ethyl]benzamide]",IC50,PI3K-α,1 nM
same,IC50,PI3K-α; listed as 722,0.8 nM
same,IC50,"[1]; Homo sapiens, MDA-MB-361, 72 h",110 nM
same,IC50,"[2]; Homo sapiens, PC3MM2, 72 h",374 nM
"COc1nc(-c2ccc(NC(=O)Nc3ccc(C(=O)N4CCN(C)CC4)cc3)cc2)nc(N2CCOCC2)n1 [Example 246, 1-[4-(4-methoxy-6-morpholin-4-yl-1,3,5-triazin-2-yl)phenyl]-3-{4-[(4-methylpiperazin-1-yl)carbonyl]phenyl}urea]",IC50,"[1]; Homo sapiens, MDA-MB-361, 72 h",35 nM
same,IC50,"[2]; Homo sapiens, PC3MM2, 72 h",91 nM
"COc1nc(-c2ccc(NC(=O)Nc3ccc(C(=O)N4CCNC(C)(C)C4)cc3)cc2)nc(N2CCOCC2)n1 [Example 247, 1-{4-[(3,3-dimethylpiperazin-1-yl)carbonyl]phenyl}-3-[4-(4-methoxy-6-morpholin-4-yl-1,3,5-triazin-2-yl)phenyl]urea]",IC50,PI3K-α,2 nM
same,IC50,PI3K-α; listed as 724,1.5 nM
same,IC50,"[1]; Homo sapiens, MDA-MB-361, 72 h",30 nM
same,IC50,"[2]; Homo sapiens, PC3MM2, 72 h",111 nM
"COc1nc(-c2ccc(NC(=O)Nc3ccc(C(=O)NCCN4CCCCC4)cc3)cc2)nc(N2CCOCC2)n1 [Example 248, 4-({[4-(4-methoxy-6-morpholin-4-yl-1,3,5-triazin-2-yl)phenyl]carbamoyl}amino)-N-(2-piperidin-1-ylethyl)benzamide]",IC50,PI3K-α,2 nM
same,IC50,"[1]; Homo sapiens, MDA-MB-361, 72 h",< 31 nM
same,IC50,"[2]; Homo sapiens, PC3MM2, 72 h",69 nM
"CCCCc1nc(-c2ccc(NC(=O)Nc3ccc(C(=O)Nc4ccc(OCCN(C)C)cc4)cc3)cc2)nc(N2CCOCC2)n1 [Example 269, 4-({[4-(4-butyl-6-morpholin-4-yl-1,3,5-triazin-2-yl)phenyl]carbamoyl}amino)-N-{4-[2-(dimethylamino)ethoxy]phenyl}benzamide]",IC50,PI3K-α,6 nM
same,IC50,Human mTOR (FLAG-TOR),80 nM
same,IC50,[2]; [7],144 nM
same,IC50,PI3K-γ,140 nM
"CC(C)c1nc(-c2ccc(NC(=O)Nc3ccc(C(=O)NC4CN(C)C4)cc3)cc2)nc(N2CCOCC2)n1 [Example 307, N-(1-methylazetidin-3-yl)-4-[({4-[4-(1-methylethyl)-6-morpholin-4-yl-1,3,5-triazin-2-yl]phenyl}carbamoyl)amino]benzamide]",IC50,PI3K-α,3 nM
same,IC50,Human mTOR (FLAG-TOR),2.8 nM
same,IC50,[2]; [7],362 nM
same,IC50,PI3K-γ,30 nM
"CC(C)Cc1nc(-c2ccc(NC(=O)Nc3ccc(C(=O)N4CCC(N(C)C)CC4)cc3)cc2)nc(N2CCOCC2)n1 [Example 323, 1-(4-{[4-(dimethylamino)piperidin-1-yl]carbonyl}phenyl)-3-{4-[4-(2-methylpropyl)-6-morpholin-4-yl-1,3,5-triazin-2-yl]phenyl}urea]",IC50,PI3K-α,2.9 nM
same,IC50,Human mTOR (FLAG-TOR),7 nM
same,IC50,[2]; [7],77 nM
same,IC50,PI3K-γ,32 nM
"O=C(Nc1ccncc1)Nc1ccc(-c2nc(-c3ccccc3)nc(N3CCOCC3)n2)cc1 [Example 346, 1-[4-(4-morpholin-4-yl-6-phenyl-1,3,5-triazin-2-yl)phenyl]-3-pyridin-4-ylurea]",IC50,PI3K-α,43 nM
same,IC50,PI3K-α; listed as 537,43.5 nM
same,IC50,[1]; [8],< 31 nM
same,IC50,[2]; [9],< 31 nM
same,IC50,PI3K-γ,89 nM
"CN(C)CCN(C)C(=O)Nc1ccc(NC(=O)Nc2ccc(-c3nc(N4CCOCC4)nc(N4CCOCC4)n3)cc2)cc1 [Example 500, 1-[2-(dimethylamino)ethyl]-3-[4-({[4-(4,6-dimorpholin-4-yl-1,3,5-triazin-2-yl)phenyl]carbamoyl}amino)phenyl]-1-methylurea]",IC50,PI3K-α,0.4 nM
same,IC50,Human mTOR (FLAG-TOR),1.09 nM
same,IC50,[1]; [8],1 nM
same,IC50,PI3K-γ,10 nM
"CCN1CCN(C(=O)Nc2ccc(NC(=O)Nc3ccc(-c4nc(N5CCOCC5)nc(N5CCOCC5)n4)cc3)cc2)CC1 [Example 503, N-[4-({[4-(4,6-dimorpholin-4-yl-1,3,5-triazin-2-yl)phenyl]carbamoyl}amino)phenyl]-4-ethylpiperazine-1-carboxamide]",IC50,PI3K-α,0.5 nM
same,IC50,[1]; [8],7.5 nM
same,IC50,[2]; [9],12.5 nM
same,IC50,PI3K-γ,1.8 nM
"C[C@H]1COCCN1c1nc(-c2ccc(NC(=O)Nc3ccc(C(=O)N4CCCC4)cc3)cc2)nc(N2CCOC[C@@H]2C)n1 [Example 571, 1-(4-{4,6-bis[(3S)-3-methylmorpholin-4-yl]-1,3,5-triazin-2-yl}phenyl)-3-[4-(pyrrolidin-1-ylcarbonyl)phenyl]urea]",IC50,PI3K-α,21 nM
same,IC50,"[1]; Homo sapiens, MDA-MB-361, 72 h, MTS cell growth assay, three days after drug treatment, MDA-MB-361 cells",90 nM
same,IC50,[2]; [9],168 nM
same,IC50,PI3K-γ,108 nM
"CN(C)CCNC(=O)c1ccc(NC(=O)Nc2ccc(-c3nc(N4CCCOCC4)nc(N4CCOCC4)n3)cc2)cc1 [Example 572, N-[2-(dimethylamino)ethyl]-4-[({4-[4-morpholin-4-yl-6-(1,4-oxazepan-4-yl)-1,3,5-triazin-2-yl]phenyl}carbamoyl)amino]benzamide]",IC50,PI3K-α,0.9 nM
same,IC50,[1]; [8],13 nM
same,IC50,[2]; [9],56 nM
same,IC50,PI3K-γ,15 nM
"O=C(Nc1ccc(C(=O)N2CCC(N3CCCCC3)CC2)cc1)Nc1ccc(-c2nc(N3CCOCC3)nc(N3C4CCC3COC4)n2)cc1 [Example 760, 1-[4-(1,4′-bipiperidin-1′-ylcarbonyl)phenyl]-3-{4-[4-morpholin-4-yl-6-(3-oxa-8-azabicyclo[3.2.1]oct-8-yl)-1,3,5-triazin-2-yl]phenyl}urea]",IC50,PI3K-α,4.3 nM
same,IC50,Human mTOR (FLAG-TOR),0.21 nM
same,IC50,[2]; [9],4 nM
same,IC50,PI3K-γ,28.3 nM
"O=C(Nc1ccncc1)Nc1ccc(-c2nc(N3CCOCC3)nc(N3CC4CCC3CO4)n2)cc1 (stereo not shown) [Example 807, 1-{4-[4-morpholin-4-yl-6-(2-oxa-5-azabicyclo[2.2.2]oct-5-yl)-1,3,5-triazin-2-yl]phenyl}-3-pyridin-4-ylurea]",IC50,"[1]; Homo sapiens, 72 h, MDA-MB-361 cells, MTS, three days after drug treatment",35 nM
same,IC50,[2]; [10],37 nM
"CN1CCN(C(=O)c2ccc(NC(=O)Nc3ccc(-c4nc(N5CCOCC5)[nH]c(=O)n4)cc3)cc2)CC1 [Example 826, 1-{4-[(4-methylpiperazin-1-yl)carbonyl]phenyl}-3-[4-(6-morpholin-4-yl-4-oxo-4,5-dihydro-1,3,5-triazin-2-yl)phenyl]urea]",IC50,PI3K-α,15 nM
same,IC50,"[1]; Homo sapiens, MDA-MB-361, 72 h",> 1000 nM
same,IC50,[2]; [10],> 1000 nM
"N-[2-(dimethylamino)ethyl]-4-({[4-(4-morpholin-4-yl-6-piperidin-1-yl-1,3,5-triazin-2-yl)phenyl]carbamoyl}amino)benzamide [Example 601]",IC50,PI3K-α,3.5 nM
same,IC50,Human mTOR (FLAG-TOR),3 nM
same,IC50,[2]; [5],155 nM
same,IC50,PI3K-γ,57.5 nM
